Results reported in patent US20220073475A1, “5-MEMBERED HETEROARYL COMPOUNDS CONTAINING A HYDROXAMATE MOIETY AND THEIR USE” (UNIVERSITE DE LILLE, priority 2019, published 2022).
Several values for one entry are separate records, joined by “and”; a condition that tells them apart may be missing. Equal values may be shown once.

How the values were obtained:
TLM1 cells = experiment: X-ray radiation in combination with compound, propidium iodide dead cells, ratio of corrected AUC; type: cell-based, canine
Protocol: Canine melanoma TLM-1 cells are maintained in DMEM medium supplemented with GlutaMAX™, 10% fetal bovine serum, 1× Hepes and 1% penicillin-streptomycin.
TLM-1 cells were seeded with the BioTek MicroFlo™ dispenser in μClear® black 384-well plates (Greiner) at the density of 20,000 cells/mL in 50 μL. Compounds for pre-treatment were added 2 h after the seeding, using an Echo 550 (Labcyte). The next day, cells were washed five times with 40 μL media without phenol red with a plate washer (Hydrospeed, Tecan). Cells were irradiated with 4, 6, 8, 12, 16, 20 and 24 Gray (Gy). […] This step was repeated every 72 h after radiation. Plates were incubated at 37° C. and 5% CO2. […] 4 images per well were collected. Images were analyzed with Columbus software (Perkin Elmer). In this system we used predefined building blocks to measure different parameters on nuclei detected. We applied a threshold based on propidium iodide intensity in nuclei of controls to select and count dead cells. By dividing the number of dead cells by the number of nuclei detected we obtained the percentage of dead cells. AUC were determined in one experiment with triplicate incubates on percentage of cells labelled with propidium iodide and were corrected by the percentage of cells labelled with propidium iodide at 0 Gy. Ratio of AUC corrected was determined as followed: Activity=(Area of the dose-concentration curve of cytotoxic agent combined with one concentration of compound corrected by the effect of the compound alone at 0Gy)/(Area of the dose-concentration curve of radiation alone corrected by the effect of the vehicle at 0Gy).

OPM2 cells = experiment: CFZ potency increase, ratio of CC50 of CFZ alone / with compound; type: cell-based, human
Text: Human multiple myeloma cells OPM2 (ACC 50, DSMZ) are maintained at 0.3-0.7 10^6 cells/mL in RPMI1640 medium supplemented with GlutaMAX™, 10% fetal bovine serum and 1% penicillin-streptomycin.
We developed a cell-based, high content assay allowing the rapid detection and quantification of apoptotic cells. Caspase-3/7 activity was detected in real-time using the NucView™ 488 Caspase-3 substrate (Biotium), where the caspase-3/7 substrate peptide sequence DEVD is attached to a nucleic acid dye. The NucView™ 488 reagent crosses the plasma membrane to enter the cytoplasm, where the dye is unable to bind to DNA and remains non-fluorescent. Once the substrate has been cleaved by activated caspase-3/7 in apoptotic cells, the high-affinity DNA dye is released and migrates to the cell nucleus to stain the nucleus with a bright green fluorescence. All cell nuclei were also labeled with Hoechst 33342 (Ozyme).
For OPM2, briefly, nanoliters of compound and cytotoxic agent in DMSO stock solutions were first transferred and combined in 384-microtiter well plate using an Echo555 liquid handler (Labcyte). The exact volume of each solution to be transferred was calculated to achieve subsequently the target concentration in the 70 μL volume incubate. Final DMSO content was maintained at 0.2%. Then, 70 μL of cells treated with 1 μM NucView™ 488 and 20 ng/mL Hoechst 33342 were distributed to the plates to obtain a final density of 12,000 cells per well. The microplates were incubated at 37° C. and 5% CO2 in an automated LiCONiC STR240 UB cell incubator, and images were acquired at various times at 405 nm and 488 nm with the high-resolution automated confocal microscope INCell 6000 (GE). Four fields per well were read with the 20× objective in a confocal mode. The BioCel workstation was managed by VWorks automation control software
For all cells, Columbus software (Perkin) was used for image quantification and analysis. First, Hoechst 33342 staining was used for an automated detection of nuclei, in which the mean fluorescence intensity for NucView™ 488 was quantified. Inspection of control cells at initial time was used to set a threshold level of NucView™ 488 fluorescence to separate non apoptotic cells from apoptotic cells. Finally, for each well, the result was expressed as percentage of apoptotic cells in the total cell population. CC50 values were calculated from concentration-response curves by a nonlinear regression analysis at four parameters using Excel Fit or GraphPad Prim softwares.
Activity=(% of apoptotic cells with cytotoxic agent in combination with compound of the invention)/(% of apoptotic cells with cytotoxic agent alone). • Ratio of CC50: The CC50 of the cytotoxic agent was calculated in absence and in presence of a compound of the invention.
Activity=(CC50 of agent alone)/(CC50 of agent with compound). • Ratio of AUC. Activity=(Area of the dose-concentration curve of cytotoxic agent combined with one concentration of compound)/(Area of the dose-concentration curve of cytotoxic agent alone). (Lehar J. et al, 2008 (molecular systems biology 4:215)).

[1] = OPM2, compound at 7.5 μM (Table 5)

| Compound | Activity: ratio (CC50 of CFZ alone)/(CC50 of CFZ in combination with compound of the invention) (OPM2 cells; [1]) | other results |
| --- | --- | --- |
| O=C(C[C@@H](Cc1ccc2ccccc2c1)n1cc([C@@H]2CCCN2C(=O)c2ccc(F)c(F)c2)nn1)NO [Compound 93, (3R)-3-[4-[(2S)-1-(3,4-difluorobenzoyl)pyrrolidin-2-yl]triazol-1-yl]-4-(2-naphthyl)butanehydroxamic acid] | 2.3 | Potency of X-ray radiations in combination with compound (in words) (TLM1 cells; TLM1): increase the potency; Activity: ratio of corrected AUC of X-ray radiation in combination with compound / corrected AUC of X-ray radiation alone (TLM1 cells; TLM1, compound at 30 μM): 1.2 |
| O=C(C[C@@H](Cc1ccc2ccsc2c1)n1cc(CNC(=O)c2ccc(F)cc2)nn1)NO [Compound 174, (R)—N-((1-(1-(benzo[b]thiophen-6-yl)-4-(hydroxyamino)-4-oxobutan-2-yl)-1H-1,2,3-triazol-4-yl)methyl)-4-fluorobenzamide] | 2.0 and 1.5 | – |
| CN(Cc1cn([C@@H](CC(=O)NO)Cc2ccc3c(c2)CCCC3)nn1)C(=O)c1ccc(F)cc1 [Compound 166, (R)-4-fluoro-N-((1-(4-(hydroxyamino)-4-oxo-1-(5,6,7,8-tetrahydronaphthalen-2-yl)butan-2-yl)-1H-1,2,3-triazol-4-yl)methyl)-N-methylbenzamide] | – | Activity: ratio (CC50 of CFZ alone)/(CC50 of CFZ in combination with compound of the invention) (OPM2 cells; OPM2, compound at a concentration of 3.7 μM (Table 5, footnote b)): 2.1 |
| O=C(C[C@@H](Cc1c[nH]c2ccccc12)n1cc(C(Cc2ccc(O)cc2)NC(=O)c2ccc(F)c(F)c2)nn1)NO (stereo partly drawn) [Compound 146, 3,4-Difluoro-N-[1-[1-[(1R)-3-(hydroxyamino)-1-(1H-indol-3-ylmethyl)-3-oxo-propyl]triazol-4-yl]-2-(4-hydroxyphenyl)ethyl]benzamide] | 1.4 | – |
| CC(NC(=O)c1ccc(F)cc1)c1cn([C@@H](CC(=O)NO)Cc2ccc3c(c2)C(C)(C)CCC3(C)C)nn1 (stereo partly drawn) [Compound 172, 4-fluoro-N-(1-(1-((R)-4-(hydroxyamino)-4-oxo-1-(5,5,8,8-tetramethyl-5,6,7,8-tetrahydronaphthalen-2-yl)butan-2-yl)-1H-1,2,3-triazol-4-yl)ethyl)benzamide] | 3.9 | – |
| O=C(C[C@@H](Cc1c[nH]c2ccccc12)n1cc(C(Cc2ccc(OCc3ccccc3)cc2)NC(=O)c2ccc(F)c(F)c2)nn1)NO (stereo partly drawn) [Compound 89, N-[2-(4-benzyloxyphenyl)-1-[1-[(1R)-3-(hydroxyamino)-1-(1H-indol-3-ylmethyl)-3-oxo-propyl]triazol-4-yl]ethyl]-3,4-difluoro-benzamide] | 7.6 | Activity: ratio (CC50 of CFZ alone)/(CC50 of CFZ in combination with compound of the invention) (OPM2 cells; OPM2, compound at 7.5 μM (Table 6)): 7.6 |
| O=C(C[C@@H](Cc1ccc2ccccc2c1)n1cc(C2COCCN2C(=O)c2ccc(F)c(F)c2)nn1)NO (stereo partly drawn) [Compound 95, (3R)-3-[4-[4-(3,4-difluorobenzoyl)morpholin-3-yl]triazol-1-yl]-4-(2-naphthyl)butanehydroxamic acid] | 2.1 | – |
| CC(NC(=O)c1ccc(F)cc1)c1cn([C@@H](CC(=O)NO)Cc2ccc3c(c2)CCCC3)nn1 (stereo partly drawn) [Compound 167, 4-fluoro-N-(1-(1-((R)-4-(hydroxyamino)-4-oxo-1-(5,6,7,8-tetrahydronaphthalen-2-yl)butan-2-yl)-1H-1,2,3-triazol-4-yl)ethyl)benzamide] | 2.5 | – |
| O=C(C[C@@H](Cc1csc2ccccc12)n1cc(CNC(=O)c2ccc(F)cc2)nn1)NO [Compound 180, (R)—N-((1-(1-(benzo[b]thiophen-3-yl)-4-(hydroxyamino)-4-oxobutan-2-yl)-1H-1,2,3-triazol-4-yl)methyl)-4-fluorobenzamide] | 1.8 | – |
| CC(C)CCN(Cc1cn([C@@H](CC(=O)NO)Cc2c[nH]c3ccccc23)nn1)C(=O)c1ccc(F)c(F)c1 [Compound 99, 3,4-difluoro-N-[[1-[(1R)-3-(hydroxyamino)-1-(1H-indol-3-ylmethyl)-3-oxo-propyl]triazol-4-yl]methyl]-N-isopentyl-benzamide] | 2.5 | – |
| O=C(C[C@@H](Cc1c[nH]c2ccccc12)n1cc([C@@H]2CCCN2C(=O)c2ccc(F)c(F)c2)nn1)NO [Compound 88, (3R)-3-[4-[(2S)-1-(3,4-difluorobenzoyl)pyrrolidin-2-yl]triazol-1-yl]-4-(1H-indol-3-yl)butanehydroxamic acid] | 1.7 | – |
| O=C(C[C@@H](Cc1ccc2ccccc2c1)n1cc(CCNC(=O)c2ccc(F)c(F)c2)nn1)NO [Compound 57, 3,4-difluoro-N-[2-[1-[(1R)-3-(hydroxyamino)-1-(2-naphthylmethyl)-3-oxo-propyl]triazol-4-yl]ethyl]benzamide] | 1.7 | – |
| O=C(C[C@@H](Cc1c[nH]c2ccccc12)n1cc([C@H](CO)NC(=O)c2ccc(F)c(F)c2)nn1)NO [Compound 92, 3,4-difluoro-N-[(1R)-2-hydroxy-1-[1-[(1R)-3-(hydroxyamino)-1-(1H-indol-3-ylmethyl)-3-oxo-propyl]triazol-4-yl]ethyl]benzamide] | 1.7 | – |
| O=C(C[C@@H](Cc1ccc2ncsc2c1)n1cc(CNC(=O)c2ccc(F)c(F)c2)nn1)NO [Compound 178, (R)—N-((1-(1-(benzo[d]thiazol-6-yl)-4-(hydroxyamino)-4-oxobutan-2-yl)-1H-1,2,3-triazol-4-yl)methyl)-3,4-difluorobenzamide] | 1.3 | – |
| O=C(C[C@@H](Cc1ccc2cccnc2c1)n1cc(CNC(=O)c2ccc(F)c(F)c2)nn1)NO [Compound 170, (R)-3,4-difluoro-N-((1-(4-(hydroxyamino)-4-oxo-1-(quinolin-7-yl)butan-2-yl)-1H-1,2,3-triazol-4-yl)methyl)benzamide] | 1.5 | – |
| O=C(C[C@@H](Cc1ccc2ccccc2c1)n1cc(CC(=O)Nc2ccc(F)c(F)c2)nn1)NO [Compound 74, 3-{4-[(3,4-Difluoro-phenylcarbamoyl)-methyl]-[1,2,3]triazol-1-yl}-N-hydroxy-4-naphthalen-2-yl-butyramide] | 1.6 | – |
| O=C(NCc1noc(C(Cc2ccc3ccccc3c2)C(=O)NO)n1)c1ccc(F)cc1 (stereo not shown) [Compound 44, 4-Fluoro-N-[5-(1-hydroxycarbamoyl-2-naphthalen-2-yl-ethyl)-[1,2,4]oxadiazol-3-ylmethyl]-benzamide] | 1.2 | – |
| O=C(C[C@@H](Cc1ccc2ccccc2c1)n1cc(COCc2ccccc2)nn1)NO [Compound 23, (R)-3-(4-benzyloxymethyl-[1,2,3]triazol-1-yl)-N-hydroxy-4-naphthalen-2-yl-butyramide] | 1.1 | – |
| CC(NC(=O)c1ccc(F)c(F)c1)c1cn([C@@H](CC(=O)NO)Cc2c[nH]c3ccccc23)nn1 (stereo partly drawn) [Compound 91, 3,4-difluoro-N-[1-[1-[(1R)-3-(hydroxyamino)-1-(1H-indol-3-ylmethyl)-3-oxo-propyl]triazol-4-yl]ethyl]benzamide] | 1.4 | – |
